Data as given in US20220273690A1, “Edible Formulations Based on Active Ingredients and Arginine” (GRAAL S.R.L., priority 2019, published 2022).
In brackets after ≈: the same amount, converted by molar mass.

What was measured:
[1] = cited from earlier work
[2] = cited from earlier work; remark: listed apart in the source
[3] = Neutralization of an aqueous solution of SAM-e tosylate with buffering agents to pH 7; type: physicochemical; details: for Final pH: SAMe tosylate 400 mg/100 mL after addition of the neutralizing agent; for Initial pH / Stabilization time: SAMe tosylate 400 mg/100 mL; for Initial pH: before addition of the neutralizing agent; for Neutralizing agents added amount: added to SAMe tosylate 400 mg/100 mL until neutralization
Procedure: (§1) After measuring the pH, the solution was gradually added with buffering substance until neutralization and a pH 7 value were reached. As it can be seen from the table below (Table 9), the amount of Lysine and Potassium Citrate tribasic appear to be excessive to consider their use in commercial pharmaceutical forms. More precisely, from the table it can be noted that 15.4 g of Lysine fail to bring the SAMe solution to neutralization (the pH value remains 4).
SAMe tosilate concentration: 400 mg/100 mL

[4] = Neutralization of aqueous solutions of other acid active ingredients with L-Arginine; type: physicochemical; details: aqueous solution containing 1 g of the active ingredient
Description: as §1
Based on the excellent neutralization results obtained with L-Arginine, the same method was used to analyze the amount of L-Arginine necessary to neutralize a solution including other acid active ingredients (results below): • An aqueous solution containing 1 g of N-Acetyl-Cysteine is neutralized with 1.086 g of L-Arginine • An aqueous solution containing 1 g of L-Acetyl-Carnitine is neutralized with 0.736 g of L-Arginine

SMILES	pKa [1]	Solubility in water [2]	Final pH [3]	Initial pH [3]	Neutralizing agents added amount [3]	further results
O=C(O)CCCC[C@@H]1CCSS1 (racemic) [Lipoic acid]	4.52					
CC(=O)Oc1ccccc1C(=O)O [Acetylsalicylic acid]		1460 µg/mL (≈ 8.1 mM)				
N=C(N)NCCC[C@H](N)C(=O)O [Arginine]			7.0	2.08	375 mg	
O=C1O[C@H]([C@@H](O)CO)C(O)=C1O [Ascorbic Acid]	4.36					
N[C@@H](CC(=O)O)C(=O)O [Aspartic Acid]	1.7					
N[C@@H](CCC(=O)O)C(=O)O [Glutamic acid]	1.88					
CC(C)(O)CC(=O)O [Hydroxy-methyl-butyrate, 3-hydroxy-3-methylbutyric acid]	4.4	15000 µg/mL (≈ 127 mM)				
CC(=O)O[C@H](CC(=O)[O-])C[N+](C)(C)C [L-Acetyl Carnitine]	4.09	142000 µg/mL (≈ 699 mM)				Amount of L-Arginine needed to neutralize [4]: 0.736 g
C[N+](C)(C)C[C@H](O)CC(=O)[O-] [Levocarnitine]	4.2	5330 µg/mL (≈ 33.1 mM)				
[O]=[Mg] [Light magnesium oxide]			7.1	2.08	44.91 mg	
NCCCC[C@H](N)C(=O)O [Lysine]			4	2.08	15402 mg	Amount of neutralizing agent added ([3]; SAMe solution, neutralization not reached): 15.4 g
CC(=O)N[C@@H](CS)C(=O)O [N-Acetyl Cysteine]		5090 µg/mL (≈ 31.2 mM)				Amount of L-Arginine needed to neutralize [4]: 1.086 g
O=C([O-])CC(O)(CC(=O)[O-])C(=O)[O-].[K+].[K+].[K+] [Potassium citrate tribasic]			7.0	2.10	14943 mg	Stabilization time [3]: <3 min
CC(=O)SC[C@H](NC(=O)CC[C@H](N)C(=O)O)C(=O)NCC(=O)O [S-acetyl-L-glutatione]	1.75					
C[S+](CC[C@H](N)C(=O)[O-])C[C@H]1O[C@@H](n2cnc3c(N)ncnc32)[C@H](O)[C@@H]1O (stereo partly drawn) [SAMe, S-Adenosyl-l-methionine]	1.7	1190 µg/mL (≈ 2.99 mM)				
O=C([O-])O.[Na+] [Sodium bicarbonate]			7.0	2.08	690 mg	Stabilization time [3]: <3 min
O=C([O-])[O-].[Na+].[Na+] [Sodium carbonate]			7.0	2.10	200 mg	Stabilization time [3]: <3 min
O=P([O-])([O-])[O-].[Na+].[Na+].[Na+] [Sodium phosphate tribasic]			7.0	2.09	510 mg	Stabilization time [3]: <3 min
